Experimental data published in patent US20080280862A1, “Methods, compositions, and kits for the treatment of pain” (priority 2007, published 2008).

Experiments:
[1] = system: formalin-induced pain model in rats; experiment: Formalin pain model, nociceptive behaviors; assay type: in vivo, Sprague-Dawley rats
Procedure: The formalin model is a fast, reliable model used to assess potential analgesics ability to block inflammatory pain. The analgesic effects of test article combinations on pain generation are assayed using the formalin-induced pain model in rats. Adult male Sprague-Dawley rats are administered intraperitoneally study drugs (vehicle, TCA, steroid or TCA/Steroid test article combinations) once daily for 2 days (day −2 and day −1) and 30 minutes prior to the formalin injection day on day 0 (time=0). […] To elicit a pain response, dilute formalin (2% in saline) is injected under the skin of the plantar surface of the right hindpaw. The animal is placed in an observation chamber. The pain response is a characteristic biphasic response pattern of nociceptive behaviors (lifting, licking, and biting of the injected paw). Two distinct periods of nociceptive behaviors/activity are observed and recorded: an early phase (phase I) lasting the first 5-10 min and a late phase (phase II) lasting 20-40 min after the injection of formalin. One hour of data is collected (time spent displaying pain behavior) by a blinded observer using a stopwatch. Results are expressed as the number of pain behaviors per 5 minute periods (Table 8 and Table 9).

[2] = system: acetic acid-induced pain model in mice; experiment: Acetic acid pain model, writhes; assay type: in vivo, ICR mice
Procedure: The acetic acid is a reliable fast model for noxious/visceral pain usually used for screening potential drug candidates for their analgesic activity. The effects of test article combinations on pain generation are assayed using the acetic acid-induced pain model in mice. Adult male ICR mice are administered study drugs intraperitoneally (vehicle, TCA, steroid or TCA/Steroid test article combinations) once daily for 2 days (day −2 and day −1) and 30 minutes prior to the acetic acid injection on day 0 (time=0). […] To elicit a pain response, dilute acetic acid (10 ml/kg of 0.6% solution) is injected intraperitoneally into the abdomen. The animal is placed in an observation chamber, and 5 minutes after acetic acid administration, the number of writhes is counted and recorded over a five minute period by a blinded observer. A writhe is considered as a contraction of the abdominal muscles accompanied by an elongation of the body and extension of the hind limb. Results are expressed as number of writhes.

[3] = Experiment Two, 1 mg/kg, 5 minutes
[4] = Experiment Two, 1 mg/kg, 10 minutes
[5] = Experiment Two, 1 mg/kg, 15 minutes
[6] = Experiment Two, 1 mg/kg, 20 minutes
[7] = Experiment Two, 1 mg/kg, 25 minutes
[8] = Experiment Two, 1 mg/kg, 30 minutes
[9] = Experiment Two, 1 mg/kg, 35 minutes
[10] = Experiment Two, 1 mg/kg, 40 minutes
[11] = Experiment Two, 1 mg/kg, 45 minutes
[12] = Experiment Two, 1 mg/kg, 50 minutes
[13] = Experiment Two, 1 mg/kg, 55 minutes
[14] = Experiment Two, 1 mg/kg, 60 minutes
[15] = Experiment Two, 3 mg/kg, 5 minutes
[16] = Experiment Two, 3 mg/kg, 10 minutes
[17] = Experiment Two, 3 mg/kg, 15 minutes
[18] = Experiment Two, 3 mg/kg, 20 minutes
[19] = Experiment Two, 3 mg/kg, 25 minutes
[20] = Experiment Two, 3 mg/kg, 30 minutes
[21] = Experiment Two, 3 mg/kg, 35 minutes
[22] = Experiment Two, 3 mg/kg, 40 minutes
[23] = Experiment Two, 3 mg/kg, 45 minutes
[24] = Experiment Two, 3 mg/kg, 50 minutes
[25] = Experiment Two, 3 mg/kg, 55 minutes
[26] = Experiment Two, 3 mg/kg, 60 minutes

CNCCC=C1c2ccccc2CCc2ccccc21 [Nortriptyline]
Mean number of behaviors per 5 minute block ([1]; Experiment One, nortriptyline, 1 mg/kg, 5 minutes): 185.0 ± 30.0
Mean number of behaviors per 5 minute block ([1]; Experiment One, nortriptyline, 1 mg/kg, 10 minutes): 26.0 ± 16.0
Mean number of behaviors per 5 minute block ([1]; Experiment One, nortriptyline, 1 mg/kg, 15 minutes): 16.0 ± 16.0
Mean number of behaviors per 5 minute block ([1]; Experiment One, nortriptyline, 1 mg/kg, 20 minutes): 33.0 ± 22.0
Mean number of behaviors per 5 minute block ([1]; Experiment One, nortriptyline, 1 mg/kg, 25 minutes): 124.0 ± 40.0
Mean number of behaviors per 5 minute block ([1]; Experiment One, nortriptyline, 1 mg/kg, 30 minutes): 170.0 ± 46.0
Mean number of behaviors per 5 minute block ([1]; Experiment One, nortriptyline, 1 mg/kg, 35 minutes): 181.0 ± 47.0
Mean number of behaviors per 5 minute block ([1]; Experiment One, nortriptyline, 1 mg/kg, 40 minutes): 168.0 ± 46.0
Mean number of behaviors per 5 minute block ([1]; Experiment One, nortriptyline, 1 mg/kg, 45 minutes): 176.0 ± 45.0
Mean number of behaviors per 5 minute block ([1]; Experiment One, nortriptyline, 1 mg/kg, 50 minutes): 191.0 ± 42.0
Mean number of behaviors per 5 minute block ([1]; Experiment One, nortriptyline, 1 mg/kg, 55 minutes): 165.0 ± 41.0
Mean number of behaviors per 5 minute block ([1]; Experiment One, nortriptyline, 1 mg/kg, 60 minutes): 89.0 ± 34.0
Mean number of behaviors per 5 minute block ([1]; Experiment One, nortriptyline, 3 mg/kg, 5 minutes): 248.0 ± 10.6
Mean number of behaviors per 5 minute block ([1]; Experiment One, nortriptyline, 3 mg/kg, 10 minutes): 36.0 ± 12.0
Mean number of behaviors per 5 minute block ([1]; Experiment One, nortriptyline, 3 mg/kg, 15 minutes): 87.0 ± 32.8
Mean number of behaviors per 5 minute block ([1]; Experiment One, nortriptyline, 3 mg/kg, 20 minutes): 159.0 ± 39.7
Mean number of behaviors per 5 minute block ([1]; Experiment One, nortriptyline, 3 mg/kg, 25 minutes): 182.0 ± 36.3
Mean number of behaviors per 5 minute block ([1]; Experiment One, nortriptyline, 3 mg/kg, 30 minutes): 231.0 ± 32.4
Mean number of behaviors per 5 minute block ([1]; Experiment One, nortriptyline, 3 mg/kg, 35 minutes): 253.0 ± 30.7
Mean number of behaviors per 5 minute block ([1]; Experiment One, nortriptyline, 3 mg/kg, 40 minutes): 253.0 ± 30.8
Mean number of behaviors per 5 minute block ([1]; Experiment One, nortriptyline, 3 mg/kg, 45 minutes): 258.0 ± 28.3
Mean number of behaviors per 5 minute block ([1]; Experiment One, nortriptyline, 3 mg/kg, 50 minutes): 212.0 ± 28.3
Mean number of behaviors per 5 minute block ([1]; Experiment One, nortriptyline, 3 mg/kg, 55 minutes): 136.0 ± 40.3
Mean number of behaviors per 5 minute block ([1]; Experiment One, nortriptyline, 3 mg/kg, 60 minutes): 94.0 ± 41.7
Mean number of behaviors per 5 minute block ([1]; Experiment One, nortriptyline, 10 mg/kg, 5 minutes): 227.0 ± 19.3
Mean number of behaviors per 5 minute block ([1]; Experiment One, nortriptyline, 10 mg/kg, 10 minutes): 30.0 ± 18.2
Mean number of behaviors per 5 minute block ([1]; Experiment One, nortriptyline, 10 mg/kg, 15 minutes): 11.0 ± 6.1
Mean number of behaviors per 5 minute block ([1]; Experiment One, nortriptyline, 10 mg/kg, 20 minutes): 39.0 ± 29.4
Mean number of behaviors per 5 minute block ([1]; Experiment One, nortriptyline, 10 mg/kg, 25 minutes): 62.0 ± 38.5
Mean number of behaviors per 5 minute block ([1]; Experiment One, nortriptyline, 10 mg/kg, 30 minutes): 60.0 ± 34.4
Mean number of behaviors per 5 minute block ([1]; Experiment One, nortriptyline, 10 mg/kg, 35 minutes): 99.0 ± 43.0
Mean number of behaviors per 5 minute block ([1]; Experiment One, nortriptyline, 10 mg/kg, 40 minutes): 109.0 ± 44.0
Mean number of behaviors per 5 minute block ([1]; Experiment One, nortriptyline, 10 mg/kg, 45 minutes): 122.0 ± 43.2
Mean number of behaviors per 5 minute block ([1]; Experiment One, nortriptyline, 10 mg/kg, 50 minutes): 96.0 ± 39.1
Mean number of behaviors per 5 minute block ([1]; Experiment One, nortriptyline, 10 mg/kg, 55 minutes): 140.0 ± 42.6
Mean number of behaviors per 5 minute block ([1]; Experiment One, nortriptyline, 10 mg/kg, 60 minutes): 180.0 ± 40.3
Mean number of behaviors per 5 minute block ([1]; Experiment One, nortriptyline, 20 mg/kg, 5 minutes): 158.0 ± 31.6
Mean number of behaviors per 5 minute block ([1]; Experiment One, nortriptyline, 20 mg/kg, 10 minutes): 21.0 ± 12.8
Mean number of behaviors per 5 minute block ([1]; Experiment One, nortriptyline, 20 mg/kg, 15 minutes): 0.0 ± 0.0
Mean number of behaviors per 5 minute block ([1]; Experiment One, nortriptyline, 20 mg/kg, 20 minutes): 9.0 ± 8.8
Mean number of behaviors per 5 minute block ([1]; Experiment One, nortriptyline, 20 mg/kg, 25 minutes): 30.0 ± 30.0
Mean number of behaviors per 5 minute block ([1]; Experiment One, nortriptyline, 20 mg/kg, 30 minutes): 36.0 ± 29.9
Mean number of behaviors per 5 minute block ([1]; Experiment One, nortriptyline, 20 mg/kg, 35 minutes): 33.0 ± 29.2
Mean number of behaviors per 5 minute block ([1]; Experiment One, nortriptyline, 20 mg/kg, 40 minutes): 29.0 ± 29.3
Mean number of behaviors per 5 minute block ([1]; Experiment One, nortriptyline, 20 mg/kg, 45 minutes): 33.0 ± 26.9
Mean number of behaviors per 5 minute block ([1]; Experiment One, nortriptyline, 20 mg/kg, 50 minutes): 46.0 ± 28.2
Mean number of behaviors per 5 minute block ([1]; Experiment One, nortriptyline, 20 mg/kg, 55 minutes): 47.0 ± 29.4
Mean number of behaviors per 5 minute block ([1]; Experiment One, nortriptyline, 20 mg/kg, 60 minutes): 68.0 ± 37.6
Mean number of behaviors per 5 minute block [1, 3]: 232.0 ± 16.5
Mean number of behaviors per 5 minute block [1, 4]: 13.0 ± 4.9
Mean number of behaviors per 5 minute block [1, 5]: 27.0 ± 16.8
Mean number of behaviors per 5 minute block [1, 6]: 113.0 ± 44.2
Mean number of behaviors per 5 minute block [1, 7]: 165.0 ± 45.1
Mean number of behaviors per 5 minute block [1, 8]: 234.0 ± 26.3
Mean number of behaviors per 5 minute block [1, 9]: 270.0 ± 10.6
Mean number of behaviors per 5 minute block [1, 10]: 281.0 ± 10.4
Mean number of behaviors per 5 minute block [1, 11]: 287.0 ± 5.5
Mean number of behaviors per 5 minute block [1, 12]: 266.0 ± 16.6
Mean number of behaviors per 5 minute block [1, 13]: 192.0 ± 38.3
Mean number of behaviors per 5 minute block [1, 14]: 170.0 ± 46.6
Mean number of behaviors per 5 minute block [1, 15]: 228.0 ± 25.1
Mean number of behaviors per 5 minute block [1, 16]: 28.0 ± 12.3
Mean number of behaviors per 5 minute block [1, 17]: 10.0 ± 6.2
Mean number of behaviors per 5 minute block [1, 18]: 96.0 ± 43.8
Mean number of behaviors per 5 minute block [1, 19]: 162.0 ± 44.0
Mean number of behaviors per 5 minute block [1, 20]: 200.0 ± 45.0
Mean number of behaviors per 5 minute block [1, 21]: 217.0 ± 47.8
Mean number of behaviors per 5 minute block [1, 22]: 216.0 ± 47.3
Mean number of behaviors per 5 minute block [1, 23]: 220.0 ± 48.1
Mean number of behaviors per 5 minute block [1, 24]: 224.0 ± 42.0
Mean number of behaviors per 5 minute block [1, 25]: 247.0 ± 36.2
Mean number of behaviors per 5 minute block [1, 26]: 188.0 ± 36.8
Mean # of writhes per 5 minutes ± SEM ([2]; 1 mg/kg ip): 11.78 ± 3.44
Mean # of writhes per 5 minutes ± SEM ([2]; 5 mg/kg ip): 7.79 ± 3.81
Mean # of writhes per 5 minutes ± SEM ([2]; 10 mg/kg ip): 7.57 ± 2.53
Mean # of writhes per 5 minutes ± SEM ([2]; 15 mg/kg ip): 2.07 ± 1.42

C[C@]12C=CC(=O)C=C1CC[C@@H]1[C@@H]2[C@@H](O)C[C@@]2(C)[C@H]1CC[C@]2(O)C(=O)CO [Prednisolone]
Mean number of behaviors per 5 minute block [1, 3]: 224.0 ± 34.1
Mean number of behaviors per 5 minute block [1, 4]: 27.0 ± 11.7
Mean number of behaviors per 5 minute block [1, 5]: 18.0 ± 15.2
Mean number of behaviors per 5 minute block [1, 6]: 115.0 ± 41.9
Mean number of behaviors per 5 minute block [1, 7]: 172.0 ± 51.1
Mean number of behaviors per 5 minute block [1, 8]: 178.0 ± 52.0
Mean number of behaviors per 5 minute block [1, 9]: 174.0 ± 48.7
Mean number of behaviors per 5 minute block [1, 10]: 207.0 ± 43.9
Mean number of behaviors per 5 minute block [1, 11]: 197.0 ± 45.3
Mean number of behaviors per 5 minute block [1, 12]: 192.0 ± 48.4
Mean number of behaviors per 5 minute block [1, 13]: 113.0 ± 43.2
Mean number of behaviors per 5 minute block [1, 14]: 92.0 ± 29.7
Mean number of behaviors per 5 minute block [1, 15]: 218.0 ± 14.7
Mean number of behaviors per 5 minute block [1, 16]: 15.0 ± 6.7
Mean number of behaviors per 5 minute block [1, 17]: 6.0 ± 3.4
Mean number of behaviors per 5 minute block [1, 18]: 68.0 ± 19.8
Mean number of behaviors per 5 minute block [1, 19]: 208.0 ± 35.5
Mean number of behaviors per 5 minute block [1, 20]: 214.0 ± 39.8
Mean number of behaviors per 5 minute block [1, 21]: 254.0 ± 29.2
Mean number of behaviors per 5 minute block [1, 22]: 269.0 ± 14.2
Mean number of behaviors per 5 minute block [1, 23]: 258.0 ± 19.9
Mean number of behaviors per 5 minute block [1, 24]: 221.0 ± 36.1
Mean number of behaviors per 5 minute block [1, 25]: 198.0 ± 38.1
Mean number of behaviors per 5 minute block [1, 26]: 133.0 ± 46.8
Mean # of writhes per 5 minutes ± SEM ([2]; 1 mg/kg ip): 8.00 ± 1.70
Mean # of writhes per 5 minutes ± SEM ([2]; 5 mg/kg ip): 14.43 ± 2.07
Mean # of writhes per 5 minutes ± SEM ([2]; 10 mg/kg ip): 12.29 ± 3.83
Mean # of writhes per 5 minutes ± SEM ([2]; 35 mg/kg ip): 11.29 ± 5.22
